According to patent publication US10844019B2, “1-phenyl-3-carbamoyl urea compound, and use thereof” (Sumitomo Chemical Company, Limited, priority 2016, dated 2020):

Tested on: cucumber phytophthora blight fungi (Phytophthora capsici)
Experiment: Test for controlling cucumber phytophthora blight fungi (growth in PDB medium, absorbance at 600 nm)
Type: cell-based
Settings: 4.5 mg in 100 μL dimethyl sulfoxide, 1 μL of it in 150 μL PDB medium with zoospores, 27° C., three days, Efficacy=100×(X−Y)/X
Description: Four point five (4.5) milligrams of the present compound was diluted with 100 μL of dimethyl sulfoxide. One (1) μL portion of the diluted liquid was dispensed into a titer plate (96 wells), and thereto was then dispensed 150 μL of a potato dextrose broth medium (PDB medium) containing zoospores of cucumber phytophthora blight fungi (Phytophthora capsici). This plate was cultured at 27° C. for three days, thereby allowing the cucumber phytophthora blight fungi to undergo proliferation, and the absorbance at 600 nm of each well of the titer plate was then measured to determine a degree of growth of the cucumber phytophthora blight fungi. The efficacy was calculated from the determined degree of growth by the below-mentioned “Equation 1”. As a result, the efficacy of the Present compound was 80% or more. Efficacy=100×(X−Y)/X “Equation 1” where X: Degree of fungal growth in non-treated area Y: Degree of fungal growth in treated area
In the test example, a non-treated area means an area in which a test was conducted in the same manner, except that dimethyl sulfoxide was dispensed in place of the present compound diluted with dimethyl sulfoxide.

| Compound | Efficacy |
| --- | --- |
| CCOC(=O)COc1ncccc1Oc1cc(NC(C)=O)c(F)cc1Cl [N-[4-chloro-2-fluoro-5-{2-(ethoxycarbonyl)methoxy-3-pyridyloxy}phenyl]acetamide] | less than 50% |
| CCOC(=O)COc1ncccc1Oc1cc(NC(=O)NC(N)=O)c(F)cc1Cl [Present compound] | ≥ 80% |
